Consider seven compounds from patent US4275068A, “Lipid lowering alkylene glycols and ester derivatives thereof” (Siegfried AG, priority 1977, dated 1981).

The structures appear in SMILES notation. Counter-ions that a name gives are not always drawn.

One data set can be described thus: Toxicity on mice (LD50). The settings on record: mouse. From the text: Toxicity values and activities of the above compounds (1) were investigated by animal tests in accordance with conventional methods as described, for example, in the above mentioned publications, and compared with the corresponding data of clofibrate, the well known cholesterol-lowering agent: […]

In data set [1] the test system is cholesterol content of the blood. As to the kind of experiment: Cholesterol-lowering (dosis required for a 25% reduction of the cholesterol content of the blood). Format: in vivo. The settings on record: dosis for 25% reduction of cholesterol content of the blood; mg/kg body weight; read-out: Cholesterol ED 25. From the text:
The ED25 value, that is, the dosis in mg/kg body weight required for a 25% reduction of the cholesterol content of the blood, is 151 for clofibrate but better, i.e. lower, with all compounds (1) tested so far.

In data set [2] the test system is triglyceride content of the blood. As to the kind of experiment: Triglyceride-lowering (dosis required for a 25% reduction of the triglyceride content of the blood). The format is in vivo. Conditions: dosis for 25% reduction of triglyceride content of the blood, mg/kg body weight; for ED25: read-out: Triglyceride ED 25. From the text: The ED25 value, in this instance the dosis in mg/kg body weight required for a 25% reduction of the triglyceride content of the blood, is better, i.e. lower, with all compounds (1) tested so far than the corresponding activity value of 22 of clofibrate.

The compound `CCOC(=O)C(C)(C)Oc1ccc(Cl)cc1` [Clofibrate, reference compound] gave an LD50 in “Toxicity on mice (LD50)” (in vivo) of 2180 mg/kg. For the same compound, in data set [1], the ED25 came to 151 mg/kg. Besides, the results for the “Triglyceride ED 25” value in data set [2] and in data set [2] (listed as clofibrate) were 222 mg/kg and 22 mg/kg, respectively.

Compound `OCCOc1ccc(Cc2ccc(Cl)cc2)cc1` [Example 1, 2-[4-(4'-chlorobenzyl)-phenoxy]-ethanol] registered a median lethal dose (LD50) in the data set “Toxicity on mice (LD50)” of 3000 mg/kg. Further, the ED25 in data set [1] was 80 mg/kg; in data set [2], less than 50 mg/kg.

In the data set “Toxicity on mice (LD50)”, `CCC(C)(CO)Oc1ccc(Cc2ccc(Cl)cc2)cc1` (stereo not drawn) [Example 2, 2-methyl-2-[4-(4'-chlorobenzyl)-phenoxy]-butanol] came in with a median lethal dose (LD50) of 2960 mg/kg. Moreover, the values for the ED25 in data set [1] and in data set [2] were 80 mg/kg and 14 mg/kg, respectively.

In the case of `OCC(Oc1ccc(Cc2ccc(Cl)cc2)cc1)c1ccccc1` (stereo not drawn) [Example 3, 2-phenyl-2-[4-(4'-chlorobenzyl)-phenoxy]-ethanol], in “Toxicity on mice (LD50)”, the LD50 was more than 3000 mg/kg. The ED25 in data set [1] is more than 100 mg/kg.

Regarding `O=C(OCCOc1ccc(Cc2ccc(Cl)cc2)cc1)c1cccnc1` [Example 4, Ester of nicotinic acid and 2-[4-(4'-chlorobenzyl)-phenoxy]-ethanol], in the data set “Toxicity on mice (LD50)”, the 50% lethal dose (LD50) is more than 3000 mg/kg. In addition, the ED25 amounted to 41 mg/kg in data set [1] and 70 mg/kg in data set [2].

The compound `CCC(C)(COC(=O)c1cccnc1)Oc1ccc(Cc2ccc(Cl)cc2)cc1` (stereo not drawn) [Example 5, Hydrochloride of nicotinic acid ester of 2-methyl-2-[4-(4'-chlorobenzyl)-phenoxy]-butanol] displayed an LD50 in “Toxicity on mice (LD50)” of more than 3000 mg/kg. Further, the ED25 in data set [1] came out at 30 mg/kg; in data set [2] it was 40 mg/kg.

`CC(=O)Oc1ccccc1C(=O)OCCOc1ccc(Cc2ccc(Cl)cc2)cc1` [Example 6, Acetylsalicylic acid ester of 2-[4-(4'-chlorobenzyl)-phenoxy]-ethanol]: the 50% lethal dose (LD50) in “Toxicity on mice (LD50)” was more than 3000 mg/kg. The results for the ED25 in data set [1] and in data set [2] were 70 mg/kg and more than 100 mg/kg, respectively.

What is called LD50 is the dose expected to kill half of the subjects tested. Read a high LD50 as a less toxic substance.
